One test deals with S. cerevisiae Strain F45. In words: Zones of growth inhibition on YPD plates containing 10 mM Enamine compound with 50 μg fluconazole disk. The test is classed as cell-based, Saccharomyces cerevisiae. How it is done:
Zones of Growth Inhibition were Measured for the S. cerevisiae Strain F45 on YPD Plates Containing 10 mM of the Enamine Compound with a 50 μg Fluconazole Disk Applied.
Zones of growth inhibition were also measured for strain F45 in which F45 strains were spread on YPD plates that contained 10 mM of an Enamine compound which was poured into the plate, with a 50 μg fluconazole disk. Enamine is an unsaturated compound derived by the condensation of an aldehyde or ketone with a secondary amine Some enmities have structures that are similar to PE, as such, they were tested to measure their efficacy in increasing sensitivity to an antifungal.

A further test has as its system S. cerevisiae (F45). In words: YPD plate assay with antifungal filter disk, with or without PE. The test is classed as cell-based, Saccharomyces cerevisiae. Further details: Degree of clearance: unit not given here.
Test [1] has as its system Aspergillus fumigatus (ATCC 13073). As to the kind of experiment: M.I.C. determination. In kind it is cell-based. The note with it: drug alone.
Test [2] deals with Candida krusei (ATCC 6258). As to the kind of experiment: M.I.C. determination. The test is classed as cell-based. The note with it: drug alone.
The subject of test [3] is Candida glabrata (ATCC 36583). In words: M.I.C. determination. The test is classed as cell-based. Conditions: drug alone.
In test [4] the test system is Cryptococcus neoformans (ATCC 24067). As to the kind of experiment: M.I.C. determination. The test is classed as cell-based. The note with it: drug alone.
The test system of another test is the fungus. As to the kind of experiment: Effects of antifungals in the presence of PE (FIG. 4). The test is classed as cell-based. The note with it: PE used in conjunction with the antifungal.
For the next test, the system named is BY4741 lab strain. In words: YPD plate assay with nystatin disk, with or without PE. The test is classed as cell-based, Saccharomyces cerevisiae. Conditions: FIG. 9 Panel B. The procedure: In each panel, the top plate is YPD alone with a disc that contains DMSO, the bottom left plate is YPD alone with a disc that contains 50 μg Nystatin and the bottom right plate is YPD plus 10 mM PE with a disc that contains 50 μg Nystatin. The plates in FIG. 9, panel A are spread with the F45 strain. The plates in FIG. 9, panel B are spread with the BY4741 lab strain.
In each panel, the top plate is YPD alone with a disc that contains DMSO, the bottom left plate is YPD alone with a disc that contains 50 μg Nystatin and the bottom right plate is YPD plus 10 mM PE with a disc that contains 50 μg Nystatin. The plates in panel are spread with the F45 strain (FIG. 9, panel A), The plates in FIG. 9, panel Bare spread with the BY4741 lab strain.

In test [5] the test system is S. cerevisiae biofilm formation. As to the kind of experiment: Biofilm formation (colony morphology). In kind it is cell-based, Saccharomyces cerevisiae. Conditions: determined by colony morphology; previous experiments. The procedure:
In each panel, the left plate is YPD alone and the right plate is YPD plus 10 mM PE (a concentration that inhibits the fluffy colony morphology). Each plate also contains a paper disk containing the DMSO vehicle (FIG. 1, panel A), 25 μg fluconazole (FIG. 1, panel B), 50 μg fluconazole (FIG. 1, panel C), or 100 μg fluconazole (FIG. 1, panel D).
However, previous experiments determined that biofilm formation was inhibited at PE concentrations of 10 mM or higher. Attention is drawn to FIG. 2, in which concentrations of PE that were too low to inhibit biofilm formation (determined by colony morphology) were also shown to increase the sensitivity of the yeast strain flo11D for the fluconazole which further support the hypothesis that the effect of PE on drug sensitivity is independent of its effect on biofilm formation. As such, there is a synergistic effect upon the combination of PE with fluconazole, in which the cells are more sensitive to fluconazole in the presence of PE at a higher concentration (10 mM PE). […] It is noted that even at lower concentrations of PE (<10 mM), in which the colonies are fluffy, indicating an intact cell wall or intact morphology, the PE at lower concentrations can still enhance killing by fluconazole. […] As such, even at a lower concentration, PE in combination with fluconazole has a synergistic effect on inhibiting the growth of the fungal strain.

Test [6] concerns C. albicans fluconazole resistant strain R357. In words: YPD plate assay with antifungal filter disk, with or without PE. The note with it: C. albicans strain 8357. Further details: unit not given here. The test is classed as cell-based, Candida albicans.
Test [7] deals with Candida albicans (resistant=20186.025; 8357). As to the kind of experiment: M.I.C. determination. In kind it is cell-based. The note with it: drug alone.
In test [8] the test system is Candida tropicalis (ATCC 200956). In words: M.I.C. determination. In kind it is cell-based. The note with it: drug alone.
Test [9] relates to Candida albicans (sensitive=ATCC 90028). As to the kind of experiment: M.I.C. determination. The test is classed as cell-based. Conditions: drug alone.
Test [10] has as its system Candida parapsilosis (ATCC 22019). In words: M.I.C. determination. The test is classed as cell-based. The note with it: drug alone.
The test system of test [11] is Candida albicans (resistant=20186.025; 8357). In words: Checkerboard assay (FICI) of PE with triazole. Conditions: named triazole in combination with PE. In kind it is cell-based.
Test [12] deals with Aspergillus fumigatus (ATCC 13073). As to the kind of experiment: Checkerboard assay (FICI) of PE with triazole. The test is classed as cell-based. Conditions: named triazole in combination with PE.
Test [13] relates to Candida tropicalis (ATCC 200956). As to the kind of experiment: Checkerboard assay (FICI) of PE with triazole. In kind it is cell-based. The note with it: named triazole in combination with PE.
Test [14] relates to Candida krusei (ATCC 6258). In words: Checkerboard assay (FICI) of PE with triazole. In kind it is cell-based. Conditions: named triazole in combination with PE.
For test [15], the system named is Candida glabrata (ATCC 36583). As to the kind of experiment: Checkerboard assay (FICI) of PE with triazole. Conditions: named triazole in combination with PE. The test is classed as cell-based.
For test [16], the system named is Candida albicans (sensitive=ATCC 90028). As to the kind of experiment: Checkerboard assay (FICI) of PE with triazole. In kind it is cell-based. The note with it: named triazole in combination with PE.
The test system of test [17] is Candida parapsilosis (ATCC 22019). As to the kind of experiment: Checkerboard assay (FICI) of PE with triazole. The note with it: named triazole in combination with PE. The test is classed as cell-based.
Test [18] has as its system Cryptococcus neoformans (ATCC 24067). In words: Checkerboard assay (FICI) of PE with triazole. The test is classed as cell-based. The note with it: named triazole in combination with PE.
The mark [19] stands for this setting: 10 mM compound in YPD, 50 μg fluconazole disk, F45.

A value given as a limit tells only on which side of the number the result lay.

`CC(O)c1cccc(O)c1` (stereo not drawn) [A]: the “Fluconazole Zone Size” value in the test on S. cerevisiae Strain F45 is 11 mm.
The same measure, in the same setting: to `OCc1ccccc1` [B] belongs 11 mm.
As for `CC[C@H](C)C[C@H](C)CCCCCCCCC(=O)N[C@H]1C[C@@H](O)[C@@H](NCCN)NC(=O)[C@@H]2[C@@H](O)CCN2C(=O)[C@H]([C@H](O)CCN)NC(=O)[C@H]([C@H](O)[C@@H](O)c2ccc(O)cc2)NC(=O)[C@@H]2C[C@@H](O)CN2C(=O)[C@H]([C@@H](C)O)NC1=O` [Caspofungin], the Degree of clearance is given as 0 with S. cerevisiae (F45) (FIG. 8 Panel A, YPD + 10 mM PE 50 μg Caspofungin (so in the source), F45) and 0 in the test with S. cerevisiae (F45) (FIG. 8 Panel E, YPD + 10 mM PE + 200 μg Caspofungin, F45).
Consider `Nc1ccc(CCO)cc1` [Compound C], for which the “Fluconazole Zone Size” value with S. cerevisiae Strain F45 was determined as 13 mm.
On to `C[C@H](O)c1cccc(C#N)c1` [D], for which, in the test with S. cerevisiae Strain F45, the “Fluconazole Zone Size” value is given as 17 mm.
Regarding `OCCNCCc1ccccc1` [E], the “Fluconazole Zone Size” value in the test with S. cerevisiae Strain F45 is 35 mm. Also, in the test with S. cerevisiae Strain F45 (setting [19]), the “Activity compared with PE” value was “activity greater than PE” and the “Growth of fungal cells on the plate with fluconazole” value is on record as “loss of growth”.
In the case of `CCc1ccc(N)cc1` [F], the “Fluconazole Zone Size” value in the test with S. cerevisiae Strain F45 is reported as “inhibition by compound but not fluconazole”.
Turning to `OC(Cn1cncn1)(Cn1cncn1)c1ccc(F)cc1F` [Fluconazole], the MIC in test [1] was above 128 µg; in test [2] it was 32 µg; in test [3], 8 µg; in [4], 0.25 µg. Also, the “Sensitivity of the fungus to the antifungal in the presence of PE” value (“Sensitivity of the fungus” for short) with the fungus is reported as “increased the sensitivity”.
With `Nc1[nH]c(=O)ncc1F` [Flucytosine], the “Sensitivity of the fungus” value in the test on the fungus is recorded as “increased the sensitivity”.
With `CC(C)Cc1ccc(CCCO)cc1` [G], in the test with S. cerevisiae Strain F45, the “Fluconazole Zone Size” value was “inhibition by compound but not fluconazole”.
As for `OC1(Cc2ccccc2)CCCC1` [H], in the test with S. cerevisiae Strain F45, the “Fluconazole Zone Size” value is “no growth”. The “Growth of fungal cells on the plate with fluconazole” value in the test on S. cerevisiae Strain F45 (setting [19]) is recorded as “loss of growth”.
The corresponding values for `NCCCCOCCc1ccccc1` [I] are “no growth” and “loss of growth”.
For `OCCc1cccc(Cl)c1` [J] the same measures were “no growth” and “loss of growth”.
As to `C[C@@H]1[C@H](O)[C@@H](C)/C=C/C=C/CC/C=C/C=C/C=C/C=C/C(O[C@H]2O[C@H](C)[C@@H](O)[C@H](N)[C@@H]2O)CC2O[C@](O)(CC(O)C(O)CCC(O)CC(O)CC(O)CC(=O)O[C@H]1C)CC(O)C2C(=O)O` (stereo partly drawn) [Nystatin], the Degree of clearance with S. cerevisiae (F45) (FIG. 9 Panel A, Strain F45, YPD + 50 μg nystatin) was 2; in the test with S. cerevisiae (F45) (FIG. 9 Panel A, Strain F45, YPD + 10 mM PE + 50 μg nystatin) it was 2; in the test on BY4741 lab strain (YPD + 50 μg nystatin), 2; in the test with BY4741 lab strain (YPD + 10 mM PE + 50 μg nystatin) it was 2.
On to `OCCc1ccccc1` [PE, phenyl ethanol], for which the Degree of clearance with S. cerevisiae (F45) (FIG. 6 Panel A, YPD + 10 mM PE, disk with chloroform vehicle only, F45) is 0. Also, in the test with S. cerevisiae (F45) (YPD plus 10 mM PE, 200 ng-50 μg caspofungin disk, F45, listed as PP), the “Effect of PE on caspofungin sensitivity” value is listed as “no effect”. The “PE concentration at which biofilm formation was inhibited” value in [5] was at least 10 mM. In addition, the “Fluconazole Zone Size” value in the test on S. cerevisiae Strain F45 was 27 mm.
Take `CO[C@H]1[C@@H](O)[C@H](O)[C@H](OC[C@@]23C[C@@H]4[C@H](C)CC[C@H]4[C@@]4(C=O)CC2C=C(C(C)C)[C@@]34C(=O)O)O[C@@H]1C` [Sordarin]: the Degree of clearance with S. cerevisiae (F45) (FIG. 7 Panel A, YPD + 10 mM PE + 50 μg Sordarin, F45) worked out at 4; in the test on S. cerevisiae (F45) (FIG. 7 Panel A, YPD alone, 50 μg Sordarin disk, F45), 8; in the test on S. cerevisiae (F45) (FIG. 7 Panel B, YPD + 10 mM PE + 10 μg Sordarin, F45), 3; with S. cerevisiae (F45) (FIG. 7 Panel B, YPD alone, 10 μg Sordarin disk, F45) it was 2; in the test on S. cerevisiae (F45) (FIG. 7 Panel C, YPD + 10 mM PE + 1 μg Sordarin, F45) it was 2; in the test on S. cerevisiae (F45) (FIG. 7 Panel C, YPD alone, 1 μg Sordarin disk, F45), 1. Further, the Degree of clearance in the test on S. cerevisiae (F45) (FIG. 7 Panel D, YPD + 10 mM PE + 500 μg Sordarin, F45) was 1; in the test with S. cerevisiae (F45) (FIG. 7 Panel D, YPD alone, Sordarin disk (500 ng per legend), F45) it was 0; in test [6] (FIG. 13 Panel A, YPD + 1 μg sordarin), 1; in test [6] (FIG. 13 Panel A, YPD + 1 μg sordarin + 10 mM PE), 2; in test [6] (FIG. 13 Panel B, YPD + 10 μg sordarin), 2; in test [6] (FIG. 13 Panel B, YPD + 10 μg sordarin + 10 mM PE), 3. Moreover, the Degree of clearance was 3 in test [6] (FIG. 13 Panel C, YPD + 50 μg sordarin) and 4 in test [6] (FIG. 13 Panel C, YPD + 50 μg sordarin + 10 mM PE). Also, in the test on the fungus, the “Sensitivity of the fungus” value is listed as “increased the sensitivity”.
Consider `C[C@@H](c1ncncc1F)[C@](O)(Cn1cncn1)c1ccc(F)cc1F` [Voriconazole], for which the MIC is above 128 µg in test [7]; 0.25 µg in [1]; 32 µg in test [8]; 0.25 µg in [2]; 0.5 µg in test [3]; 0.03125 µg in test [9]. Moreover, the figures for the MIC in test [10] and in [4] were 0.03125 µg and 0.0156 µg, respectively. Besides, the FICI in test [11] is on record as 0.3; in [12], 0.6; in [13], 0.6; in test [14], 1.1; in test [15], 1.2; in [16], 2.1. The FICI in test [17] is given as 1.6; in test [18] it was 1.1. Further, in the test with the fungus, the “Sensitivity of the fungus” value is recorded as “increased the sensitivity”.

For the origin of these results see patent publication US12280032B2, “Methods and compositions for increasing the potency of antifungal agents” (Pacific Northwest Research Institute, priority 2014, dated 2025).
